Assay results taken from patent publication US8987258B2 (priority 2008, dated 2015).

Target: T1, SIRT1 (Homo sapiens, UniProt Q96EB6)
T1 sequence (Q96EB6 1-747): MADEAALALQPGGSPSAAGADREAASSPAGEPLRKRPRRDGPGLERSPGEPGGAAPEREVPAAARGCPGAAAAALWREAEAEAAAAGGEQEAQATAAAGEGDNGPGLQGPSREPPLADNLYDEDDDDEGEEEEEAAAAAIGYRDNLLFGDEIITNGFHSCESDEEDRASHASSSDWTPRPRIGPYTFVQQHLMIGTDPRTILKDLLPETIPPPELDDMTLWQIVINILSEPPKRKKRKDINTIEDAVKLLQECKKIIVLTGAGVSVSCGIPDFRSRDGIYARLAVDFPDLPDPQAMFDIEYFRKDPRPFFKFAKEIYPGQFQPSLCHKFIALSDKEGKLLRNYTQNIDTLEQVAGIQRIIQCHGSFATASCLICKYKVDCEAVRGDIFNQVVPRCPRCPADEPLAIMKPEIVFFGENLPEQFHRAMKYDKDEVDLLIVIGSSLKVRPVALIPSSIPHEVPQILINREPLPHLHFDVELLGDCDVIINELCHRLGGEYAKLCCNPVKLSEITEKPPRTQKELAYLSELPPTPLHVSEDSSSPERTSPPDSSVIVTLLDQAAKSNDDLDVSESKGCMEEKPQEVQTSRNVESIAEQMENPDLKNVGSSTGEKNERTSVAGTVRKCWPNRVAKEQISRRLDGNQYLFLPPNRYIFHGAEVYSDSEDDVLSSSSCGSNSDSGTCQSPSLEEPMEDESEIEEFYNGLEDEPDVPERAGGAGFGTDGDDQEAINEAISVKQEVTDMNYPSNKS
Test: Mass spectrometry based SIRT1 deacetylase activation assay
Format: biochemical
Conditions: for EC1.5 μM: 0.5 μM peptide substrate, 120 μM βNAD+, 10 nM SIRT1, 25 min, 25° C.; for Emax: 25 min, mass spectrometry assay, read-out: % Fold Act. (percent maximum fold activation)
Source text: A mass spectrometry based assay was used to identify modulators of SIRT1 activity. The mass spectrometry based assay utilizes a peptide having 20 amino acid residues as follows: Ac-EE-K(biotin)-GQSTSSHSK(Ac)NleSTEG-K(5TMR)-EE-NH2 (SEQ ID NO: 1) wherein K(Ac) is an acetylated lysine residue and Nle is a norleucine. The peptide is labeled with the fluorophore 5TMR (excitation 540 nm/emission 580 nm) at the C-terminus. The sequence of the peptide substrate is based on p53 with several modifications. In addition, the methionine residue naturally present in the sequence was replaced with the norleucine because the methionine may be susceptible to oxidation during synthesis and purification.
The mass spectrometry assay is conducted as follows: 0.5 μM peptide substrate and 120 μM βNAD^+ is incubated with 10 nM SIRT1 for 25 minutes at 25° C. in a reaction buffer (50 mM Tris-acetate pH 8, 137 mM NaCl, 2.7 mM KCl, 1 mM MgCl2, 5 mM DTT, 0.05% BSA). Test compounds may be added to the reaction as described above. […] After the 25 minute incubation with SIRT1, 10 μL of 10% formic acid is added to stop the reaction. Reactions are sealed and frozen for later mass spec analysis. Determination of the mass of the substrate peptide allows for precise determination of the degree of acetylation (i.e. starting material) as compared to deacetylated peptide (product).
A control for inhibition of sirtuin activity is conducted by adding 1 μL of 500 mM nicotinamide as a negative control at the start of the reaction (e.g., permits determination of maximum sirtuin inhibition). A control for activation of sirtuin activity is conducted using 10 nM of sirtuin protein, with 1 μL of DMSO in place of compound, to determine the amount of deacetylation of the substrate at a given timepoint within the linear range of the assay. This timepoint is the same as that used for test compounds and, within the linear range, the endpoint represents a change in velocity.
For the above assay, SIRT1 protein was expressed and purified as follows. […] The protein was expressed by induction with 1 mM IPTG as an N-terminal His-tag fusion protein at 18° C. overnight and harvested at 30,000×g. Cells were lysed with lysozyme in lysis buffer (50 mM Tris-HCl, 2 mM Tris[2-carboxyethyl]phosphine (TCEP), 10 μM ZnCl2, 200 mM NaCl) and further treated with sonication for 10 min for complete lysis. The protein was purified over a Ni-NTA column (Amersham) and fractions containing pure protein were pooled, concentrated and run over a sizing column (Sephadex S200 26/60 global). The peak containing soluble protein was collected and run on an Ion-exchange column (MonoQ). Gradient elution (200 mM-500 mM NaCl) yielded pure protein. This protein was concentrated and dialyzed against dialysis buffer (20 mM Tris-HCl, 2 mM TCEP) overnight. The protein was aliquoted and frozen at −80° C. until further use.

Row | EC1.5 μM | Emax | SMILES
1 | C (EC1.5>25 μM) | < 200% | CS(=O)(=O)c1ccccc1-c1cc(=O)c2cccc(NC(=O)c3cnccn3)c2o1 [Compound 265]
2 | B (EC1.5 1-25 μM) | < 200% | CS(=O)(=O)c1ccccc1-c1cc(=O)c2cccc(NC(=O)c3cscn3)c2o1 [Compound 266]
3 | B (EC1.5 1-25 μM) | > 200% | O=C(Nc1cccc2c(=O)cc(-c3ccccc3C(F)(F)F)oc12)c1cncs1 [Compound 267]
4 | A (EC1-5<1.0) | > 200% | Cc1ncoc1C(=O)Nc1cccc2c(=O)cc(-c3ccccc3C(F)(F)F)oc12 [Compound 268]
5 | B (EC1.5 1-25 μM) | > 200% | Cn1cc(C(=O)Nc2cccc3c(=O)cc(-c4ccccc4C(F)(F)F)oc23)cn1 [Compound 269]
6 | C (EC1.5>25 μM) | < 200% | Cc1cnc(NC(=O)c2cccc3c(=O)cc(-c4ccccc4Cl)oc23)s1 [Compound 270]
7 | C (EC1.5>25 μM) | < 200% | Cc1cnc(NC(=O)c2cccc3c(=O)cc(-c4ccccc4F)oc23)s1 [Compound 271]
8 | B (EC1.5 1-25 μM) | > 200% | O=C(Nc1cccc2c(=O)cc(-c3ccccc3C(F)(F)F)oc12)c1cocn1 [Compound 272]
9 | A (EC1-5<1.0) | > 200% | Cc1ccccc1-c1cc(=O)c2cccc(NC(=O)c3cnccn3)c2o1 [Compound 273, N-(4-oxo-2-o-tolyl-4H-chromen-8-yl)pyrazine-2-carboxamide]
10 | C (EC1.5>25 μM) | < 200% | Cc1ccccc1-c1cc(=O)c2cccc(NC(=O)c3cscn3)c2o1 [Compound 274]
11 | C (EC1.5>25 μM) | < 200% | Cc1cnc(NC(=O)c2cccc3c(=O)cc(-c4ccccc4OC(F)(F)F)oc23)s1 [Compound 275]
12 | C (EC1.5>25 μM) | < 200% | Cc1cnc(NC(=O)c2cccc3c(=O)cc(-c4ccccc4C(F)(F)F)oc23)s1 [Compound 276]
13 | B (EC1.5 1-25 μM) | > 200% | Cn1cncc1C(=O)Nc1cccc2c(=O)cc(-c3ccccc3C(F)(F)F)oc12 [Compound 277]
14 | C (EC1.5>25 μM) | < 200% | O=C(Nc1cccc2c(=O)cc(-c3ccccc3F)oc12)c1cnccn1 [Compound 278]
15 | C (EC1.5>25 μM) | < 200% | O=C(Nc1cccc2c(=O)cc(-c3ccccc3F)oc12)c1cscn1 [Compound 279]
16 | A (EC1-5<1.0) | > 200% | O=C(Nc1cccc2c(=O)cc(-c3ccccc3Cl)oc12)c1cnccn1 [Compound 280]
17 | A (EC1-5<1.0) | > 200% | O=C(Nc1cccc2c(=O)cc(-c3ccccc3Cl)oc12)c1cscn1 [Compound 281]
18 | A (EC1-5<1.0) | > 200% | O=C(Nc1cccc2c(=O)cc(-c3ccccc3C(F)F)oc12)c1cnccn1 [Compound 282]
19 | A (EC1-5<1.0) | > 200% | O=C(Nc1cccc2c(=O)cc(-c3ccccc3C(F)F)oc12)c1cscn1 [Compound 283]
20 | C (EC1.5>25 μM) | < 200% | Cc1cnc(NC(=O)c2cccc3c(=O)cc(-c4ccccc4C(F)F)oc23)s1 [Compound 284]
21 | C (EC1.5>25 μM) | < 200% | Cc1cnc(NC(=O)c2cccc3c(=O)cc(-c4ccccc4C(C)C)oc23)s1 [Compound 285]

Row | EC1.5 μM | Emax | SMILES
22 | A (EC1-5<1.0) | > 200% | CC(C)c1ccccc1-c1cc(=O)c2cccc(NC(=O)c3cnccn3)c2o1 [Compound 286]
23 | B (EC1.5 1-25 μM) | > 200% | CC(C)c1ccccc1-c1cc(=O)c2cccc(NC(=O)c3cscn3)c2o1 [Compound 287]
24 | B (EC1.5 1-25 μM) | < 200% | O=C(Nc1cccc2c(=O)cc(-c3cccc(F)c3F)oc12)c1cnccn1 [Compound 288]
25 | C (EC1.5>25 μM) | < 200% | O=C(Nc1cccc2c(=O)cc(-c3cccc(F)c3F)oc12)c1cscn1 [Compound 289]
26 | C (EC1.5>25 μM) | < 200% | O=C(Nc1cccc2c(=O)cc(-c3c(F)cccc3F)oc12)c1cnccn1 [Compound 290]
27 | B (EC1.5 1-25 μM) | < 200% | O=C(Nc1cccc2c(=O)cc(-c3c(F)cccc3F)oc12)c1cscn1 [Compound 291]
28 | C (EC1.5>25 μM) | < 200% | O=C(Nc1cccc2c(=O)cc(-c3cc(F)ccc3F)oc12)c1cnccn1 [Compound 292]
29 | C (EC1.5>25 μM) | < 200% | O=C(Nc1cccc2c(=O)cc(-c3cc(F)ccc3F)oc12)c1cscn1 [Compound 293]
30 | B (EC1.5 1-25 μM) | < 200% | Cc1cnc(NC(=O)c2cccc3c(=O)cc(-c4ccccc4OC(F)F)oc23)s1 [Compound 294]
31 | C (EC1.5>25 μM) | < 200% | Cc1cnc(NC(=O)c2cccc3c(=O)cc(-c4cccc(F)c4F)oc23)s1 [Compound 295]
32 | A (EC1-5<1.0) | > 200% | O=C(Nc1cccc2c(=O)cc(-c3c(F)cccc3Cl)oc12)c1cnccn1 [Compound 296]
33 | B (EC1.5 1-25 μM) | > 200% | O=C(Nc1cccc2c(=O)cc(-c3c(F)cccc3Cl)oc12)c1cscn1 [Compound 297]
34 | B (EC1.5 1-25 μM) | < 200% | O=C(Nc1cccc2c(=O)cc(-c3cccc(F)c3Cl)oc12)c1cnccn1 [Compound 298]
35 | C (EC1.5>25 μM) | < 200% | O=C(Nc1cccc2c(=O)cc(-c3cccc(F)c3Cl)oc12)c1cscn1 [Compound 299]
36 | C (EC1.5>25 μM) | < 200% | O=C(Nc1cccc2c(=O)cc(-c3cc(F)ccc3Cl)oc12)c1cnccn1 [Compound 300]
37 | C (EC1.5>25 μM) | < 200% | O=C(Nc1cccc2c(=O)cc(-c3cc(F)ccc3Cl)oc12)c1cscn1 [Compound 301]
38 | B (EC1.5 1-25 μM) | > 200% | O=C(Nc1cccc2c(=O)cc(-c3c(Cl)cccc3Cl)oc12)c1cnccn1 [Compound 302]
39 | B (EC1.5 1-25 μM) | > 200% | O=C(Nc1cccc2c(=O)cc(-c3c(Cl)cccc3Cl)oc12)c1cscn1 [Compound 303]
40 | C (EC1.5>25 μM) | < 200% | Cc1cnc(NC(=O)c2cccc3c(=O)cc(-c4ccccc4S(C)(=O)=O)oc23)s1 [Compound 304]
41 | C (EC1.5>25 μM) | < 200% | Cc1cnc(NC(=O)c2cccc3c(=O)cc(-c4cccnc4C(F)(F)F)oc23)s1 [Compound 305, N-(5-methylthiazol-2-yl)-4-oxo-2-(2-(trifluoromethyl)pyridin-3-yl)-4H-chromene-8-carboxamide]
42 | B (EC1.5 1-25 μM) | > 200% | O=C(Nc1cccc2c(=O)cc(-c3cccnc3C(F)(F)F)oc12)c1cnccn1 [Compound 306, N-(4-oxo-2-(2-(trifluoromethyl)pyridin-3-yl)-4H-chromen-8-yl)pyrazine-2-carboxamide]
